Results reported in US10934310B2, “Inhibitors of Bruton's tyrosine kinase and method of their use” (JANSSEN PHARMACEUTICA NV, priority 2015, dated 2021).

Biological target: unphosphorylated-BTK kinase domain (UP-BTK), GST-tagged human BTK (389-659aa) (Homo sapiens (Human), UniProt Q06187)
Test: BTK Kinase Lanthascreen Binding Assay
Details: Lanthascreen binding, 60 minutes incubation; pIC50 = negative log of the IC50 in molar
Procedure: BTK Kinase Lanthascreen Binding Assay:
A BTK kinase lanthascreen binding assay monitors compound binding to unphosphorylated-BTK kinase domain (UP-BTK), by competing with a fluorescent labeled tracer. […] Data were analyzed using Xlfit™ version 5.3 from ID Business Solutions (Guildford), Microsoft Excel add-in. pIC50 refers to the negative log of the IC50 in molar.

unphosphorylated-BTK kinase domain (UP-BTK), GST-tagged human BTK (389-659aa), sequence (Q06187 389-659): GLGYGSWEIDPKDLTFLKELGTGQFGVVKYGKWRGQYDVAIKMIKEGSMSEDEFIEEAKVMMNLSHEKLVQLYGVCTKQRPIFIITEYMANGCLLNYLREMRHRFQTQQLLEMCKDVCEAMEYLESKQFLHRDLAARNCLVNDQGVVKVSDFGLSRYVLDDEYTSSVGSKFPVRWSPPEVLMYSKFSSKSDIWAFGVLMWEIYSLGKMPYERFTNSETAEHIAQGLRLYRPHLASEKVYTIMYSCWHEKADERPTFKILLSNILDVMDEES

SMILES | BTK_I_binding pIC50
C=CC(=O)N[C@@H]1CCCC[C@H]1NC(=O)c1sc2nccc3c2c1NC(=O)N3c1ccc(Oc2ccccc2)nc1C (single isomer, unassigned) [Example 322, N-((1R,2R)-2-Acrylamidocyclohexyl)-5-(*S)-(2-methyl-6-phenoxypyridin-3-yl)-4-oxo-4,5-dihydro-3H-1-thia-3,5,8-triazaacenaphthylene-2-carboxamide] | 6.81
C=CC(=O)N[C@H]1CCC[C@H](NC(=O)c2sc3nccc4c3c2NC(=O)N4c2ccc(Oc3ccccc3)nc2)C1 (single isomer, unassigned) [Example 323] | 7.13
C=CC(=O)N[C@H]1CC[C@@H](NC(=O)c2sc3nccc4c3c2NC(=O)N4c2ccc(Oc3ccccc3)cn2)C1 (single isomer, unassigned) [Example 328, N-((1*R,3*S)-3-Acrylamidocyclopentyl)-4-oxo-5-(5-phenoxypyridin-2-yl)-4,5-dihydro-3H-1-thia-3,5,8-triazaacenaphthylene-2-carboxamide] | 6.58
C=CC(=O)N[C@@H]1CC[C@@H](NC(=O)c2sc3nccc4c3c2NC(=O)N4c2cnc(Oc3ccccc3)cc2C)C1 (single isomer, unassigned) [Example 329, N-((1*R,3*R)-3-Acrylamidocyclopentyl)-5-(*S)-(4-methyl-6-phenoxypyridin-3-yl)-4-oxo-4,5-dihydro-3H-1-thia-3,5,8-triazaacenaphthylene-2-carboxamide] | 6.85
C=CC(=O)N[C@@H]1CCC[C@@H](NC(=O)c2sc3nccc4c3c2NC(=O)N4c2ccc(Oc3ccccc3)nc2)C1 (single isomer, unassigned) [Example 331, N-((1*R,3*R)-3-Acrylamidocyclohexyl)-4-oxo-5-(6-phenoxypyridin-3-yl)-4,5-dihydro-3H-1-thia-3,5,8-triazaacenaphthylene-2-carboxamide] | 6.66
C=CC(=O)N[C@@H]1CCC[C@@H](NC(=O)c2sc3nccc4c3c2NC(=O)N4c2cnc(Oc3ccccc3)cc2C)C1 (single isomer, unassigned) [Example 332, N-((1*R,3*R)-3-Acrylamidocyclohexyl)-5-(*S)-(4-methyl-6-phenoxypyridin-3-yl)-4-oxo-4,5-dihydro-3H-1-thia-3,5,8-triazaacenaphthylene-2-carboxamide] | 6.60
Cc1nc(Oc2ccccc2)ccc1N1C(=O)Nc2c(C(=O)N[C@@H]3CCCC[C@@H]3N)sc3nccc1c23 (single isomer, unassigned) [Example 333, N-((1R,2S)-2-Aminocyclohexyl)-5-(*S)-(2-methyl-6-phenoxypyridin-3-yl)-4-oxo-4,5-dihydro-3H-1-thia-3,5,8-triazaacenaphthylene-2-carboxamide] | 6.50
C=CC(=O)N[C@@H]1CC[C@@H](NC(=O)c2sc3nccc4c3c2NC(=O)N4c2ccc(Oc3ccccc3)nc2)C1 (single isomer, unassigned) [Example 334, N-((1*R,3*R)-3-Acrylamidocyclopentyl)-4-oxo-5-(6-phenoxypyridin-3-yl)-4,5-dihydro-3H-1-thia-3,5,8-triazaacenaphthylene-2-carboxamide] | 6.81
Cc1cc(CC(C)C)ncc1N1C(=O)Nc2c(C(=O)N[C@@H]3CCCC[C@@H]3N)sc3nccc1c23 (single isomer, unassigned) [Example 335, N-((1R,2S)-2-Aminocyclohexyl)-5-(*S)-(6-isobutyl-4-methylpyridin-3-yl)-4-oxo-4,5-dihydro-3H-1-thia-3,5,8-triazaacenaphthylene-2-carboxamide] | 6.38
Cc1nc(Oc2ccccc2)ccc1N1C(=O)Nc2c(C(=O)N[C@@H]3CCC[C@H]3N)sc3nccc1c23 (single isomer, unassigned) [Example 339, N-((1R,2R)-2-Aminocyclopentyl)-5-(*S)-(2-methyl-6-phenoxypyridin-3-yl)-4-oxo-4,5-dihydro-3H-1-thia-3,5,8-triazaacenaphthylene-2-carboxamide] | 6.28
CC(=O)N[C@H]1CCCC[C@H]1NC(=O)c1sc2nccc3c2c1NC(=O)N3c1ccc(Oc2ccccc2)nc1C (single isomer, unassigned) [Example 340, N-((1R,2S)-2-Acetamidocyclohexyl)-5-(*S)-(2-methyl-6-phenoxypyridin-3-yl)-4-oxo-4,5-dihydro-3H-1-thia-3,5,8-triazaacenaphthylene-2-carboxamide] | 6.26
C=CC(=O)N[C@H]1CCCC[C@H]1NC(=O)c1sc2nccc3c2c1NC(=O)N3c1cnc(OC2CCCC2)cc1C (single isomer, unassigned) [Example 341, N-((1R,2S)-2-Acrylamidocyclohexyl)-5-(*R)-(6-(cyclopentyloxy)-4-methylpyridin-3-yl)-4-oxo-4,5-dihydro-3H-1-thia-3,5,8-triazaacenaphthylene-2-carboxamide] | 6.23
CCC(=O)N[C@H]1CCCC[C@H]1NC(=O)c1sc2nccc3c2c1NC(=O)N3c1ccc(Oc2ccccc2)nc1C (single isomer, unassigned) [Example 343, 5-(*S)-(2-Methyl-6-phenoxypyridin-3-yl)-4-oxo-N-((1R,2S)-2-propionamidocyclohexyl)-4,5-dihydro-3H-1-thia-3,5,8-triazaacenaphthylene-2-carboxamide] | 6.11
CC(=O)N[C@H]1CCC[C@H]1NC(=O)c1sc2nccc3c2c1NC(=O)N3c1ccc(Oc2ccccc2)nc1C (single isomer, unassigned) [Example 345, N-((1R,2S)-2-Acetamidocyclopentyl)-5-(*S)-(2-methyl-6-phenoxypyridin-3-yl)-4-oxo-4,5-dihydro-3H-1-thia-3,5,8-triazaacenaphthylene-2-carboxamide] | 6.09
CCC(=O)N[C@H]1CCC[C@H]1NC(=O)c1sc2nccc3c2c1NC(=O)N3c1ccc(Oc2ccccc2)nc1C (single isomer, unassigned) [Example 346, 5-(*S)-(2-Methyl-6-phenoxypyridin-3-yl)-4-oxo-N-((1R,2S)-2-propionamidocyclopentyl)-4,5-dihydro-3H-1-thia-3,5,8-triazaacenaphthylene-2-carboxamide] | 6.07
C=CC(=O)N[C@H]1CCC[C@H]1NC(=O)c1sc2nccc3c2c1NC(=O)N3c1ccc(OC2CCOCC2)cc1C (single isomer, unassigned) [Example 347, N-((1R,2S)-2-Acrylamidocyclopentyl)-5-(*R)-(2-methyl-4-((tetrahydro-2H-pyran-4-yl)oxy)phenyl)-4-oxo-4,5-dihydro-3H-1-thia-3,5,8-triazaacenaphthylene-2-carboxamide] | 6.06
Cc1cc(Oc2ccccc2)ncc1N1C(=O)Nc2c(C(=O)N[C@@H]3CC[C@H](N)C3)sc3nccc1c23 (single isomer, unassigned) [Example 355, N-((1R,3S)-3-Aminocyclopentyl)-5-(*S)-(4-methyl-6-phenoxypyridin-3-yl)-4-oxo-4,5-dihydro-3H-1-thia-3,5,8-triazaacenaphthylene-2-carboxamide] | 6.61
CC(=O)N[C@@H]1CCC[C@H]1NC(=O)c1sc2nccc3c2c1NC(=O)N3c1ccc(Oc2ccccc2)nc1C (single isomer, unassigned) [Example 358, N-((1R,2R)-2-Acetamidocyclopentyl)-5-(*S)-(2-methyl-6-phenoxypyridin-3-yl)-4-oxo-4,5-dihydro-3H-1-thia-3,5,8-triazaacenaphthylene-2-carboxamide] | 6.44
C=CC(=O)N[C@H]1CC[C@@H](NC(=O)c2sc3nccc4c3c2NC(=O)N4c2cnc(Oc3ccccc3)cc2C)C1 (single isomer, unassigned) [Example 359, N-((1R,3S)-3-Acrylamidocyclopentyl)-5-(*S)-(4-methyl-6-phenoxypyridin-3-yl)-4-oxo-4,5-dihydro-3H-1-thia-3,5,8-triazaacenaphthylene-2-carboxamide] | 8.05
CC(=O)N[C@H]1CCC[C@@H](NC(=O)c2sc3nccc4c3c2NC(=O)N4c2cnc(Oc3ccccc3)cc2C)C1 (single isomer, unassigned) [Example 360, N-((1R,3S)-3-Acetamidocyclohexyl)-5-(*S)-(4-methyl-6-phenoxypyridin-3-yl)-4-oxo-4,5-dihydro-3H-1-thia-3,5,8-triazaacenaphthylene-2-carboxamide] | 6.26

Same assay, conditions: read-out: BTK_I_binding pIC50 (converted)

SMILES | IC50 [nM]
Cc1nc(Oc2ccccc2)ccc1N1C(=O)Nc2c(C(=O)N[C@@H]3CCCC[C@H]3N)sc3nccc1c23 (single isomer, unassigned) [Example 350, N-((1R,2R)-2-Aminocyclohexyl)-5-(*S)-(2-methyl-6-phenoxypyridin-3-yl)-4-oxo-4,5-dihydro-3H-1-thia-3,5,8-triazaacenaphthylene-2-carboxamide] | > 1000
C=CC(=O)N[C@H]1CCCC[C@H]1NC(=O)c1sc2nccc3c2c1NC(=O)N3c1cnc(OCC(C)C)cc1C (single isomer, unassigned) [Example 352, N-((1R,2S)-2-Acrylamidocyclohexyl)-5-(*R)-(6-isobutoxy-4-methylpyridin-3-yl)-4-oxo-4,5-dihydro-3H-1-thia-3,5,8-triazaacenaphthylene-2-carboxamide] | > 1000
CCC(=O)N[C@@H]1CCC[C@H]1NC(=O)c1sc2nccc3c2c1NC(=O)N3c1ccc(Oc2ccccc2)nc1C (single isomer, unassigned) [Example 353, 5-(*S)-(2-Methyl-6-phenoxypyridin-3-yl)-4-oxo-N-((1R,2R)-2-propionamidocyclopentyl)-4,5-dihydro-3H-1-thia-3,5,8-triazaacenaphthylene-2-carboxamide] | > 1000
Cc1cc(Oc2ccccc2)ncc1N1C(=O)Nc2c(C(=O)N[C@@H]3CCC[C@H](N)C3)sc3nccc1c23 (single isomer, unassigned) [Example 356, N-((1R,3S)-3-Aminocyclohexyl)-5-(*S)-(4-methyl-6-phenoxypyridin-3-yl)-4-oxo-4,5-dihydro-3H-1-thia-3,5,8-triazaacenaphthylene-2-carboxamide] | > 1000
